Where two headings read alike, the source gives them in different places.
How the values were obtained:
[1] = test system: AKT; test: AKT activation: Phospho-AKT (Ser473) antibody staining in reporter cells; type: cell-based; conditions: U2OS GFP-FoxO3a H212R cells, serum starved overnight, compound 30 minutes, total cellular intensity of Phospho-AKT (Ser473) staining, DMSO control 0%
Outline: (§1)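 Serum-starved U2OS cells expressing GFP-FoxO3a H212R treated with compounds 30 min, fixed, imaged. FoxO3a: nuclear/cytosolic GFP ratio, %. AKT: total cellular phospho-AKT (Ser473) antibody staining intensity, %. DMSO set as 0% activity.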

[2] = test system: FoxO3a; test: FoxO3a inhibition: GFP-FoxO3a nuclear to cytoplasmic translocation reporter assay; type: cell-based; conditions: U2OS GFP-FoxO3a H212R cells, serum starved overnight, compound 30 minutes, ratio of nuclear to cytosolic GFP intensity, DMSO control 0%, read-out: FoxO AC50
Outline: as §1

Structure (SMILES)	AC50 ([1]; Homo sapiens, U2OS, 0.5 h) [nM]	AC50 ([2]; Homo sapiens, U2OS, 0.5 h) [nM]	AC50 [1] [nM]	AC50 [2] [nM]
COc1ccc(-c2ccc(Cn3ccc4cc(-n5nc(C(N)=O)cc5C)ccc43)cc2)cc1 [Example 1-30, 1-(1-((4′-methoxy-[1,1′-biphenyl]-4-yl)methyl)-1H-indol-5-yl)-5-methyl-1H-pyrazole-3-carboxamide]	952	216		
Cc1cc(C(N)=O)nn1-c1ccc2c(c1)c(C1=CCNCC1)cn2Cc1ccc(-c2ccc(S(C)(=O)=O)cc2)cc1 [Example 21, 5-methyl-1-(1-((4′-(methylsulfonyl)-[1,1′-biphenyl]-4-yl)methyl)-3-(1,2,3,6-tetrahydropyridin-4-yl)-1H-indol-5-yl)-1H-pyrazole-3-carboxamide]	1650	598		
Cc1cc(C(N)=O)nn1-c1ccc2c(ccn2Cc2ccc([C@@H]3C[C@@H]4CN(S(C)(=O)=O)C[C@@H]4C3)cc2)c1 [Example 41, 5-methyl-1-(1-(4-((3aR,5r,6aS)-2-(methylsulfonyl)octahydrocyclopenta[c]pyrrol-5-yl)benzyl)-1H-indol-5-yl)-1H-pyrazole-3-carboxamide]	304	113		
Cc1cc(C(N)=O)nn1-c1ccc2c(ccn2Cc2ccc(-c3ccc(F)cc3)cc2)c1 [Example 1-27, 1-(1-((4′-fluoro-[1,1′-biphenyl]-4-yl)methyl)-1H-indol-5-yl)-5-methyl-1H-pyrazole-3-carboxamide]	> 10000	229		
Cc1cc(C(N)=O)nn1-c1ccc2c(ccn2Cc2ccc(C3=CCOCC3)cc2)c1 [Example 1-3, 1-(1-(4-(3,6-dihydro-2H-pyran-4-yl)benzyl)-1H-indol-5-yl)-5-methyl-1H-pyrazole-3-carboxamide]	> 10000	201		
Cc1cc(C(N)=O)nn1-c1ccc2c(ccn2Cc2ccc(-c3cnc(N)nc3)cc2)c1 [Example 1-29, 1-(1-(4-(2-aminopyrimidin-5-yl)benzyl)-1H-indol-5-yl)-5-methyl-1H-pyrazole-3-carboxamide]	774	340		
Cc1cc(C(N)=O)nn1-c1ccc2c(ccn2Cc2ccc(C3CCC4(CC3)CN(C)C4)cc2)c1 [Example 16-4, 5-methyl-1-(1-(4-(2-methyl-2-azaspiro[3.5]nonan-7-yl)benzyl)-1H-indol-5-yl)-1H-pyrazole-3-carboxamide]	756	186		
Cc1nc(C(N)=O)nn1-c1ccc2c(ccn2Cc2ccc(-c3ccc(CN4CCCC4)cc3)cc2)c1 [Example 28, 5-methyl-1-(1-((4′-(pyrrolidin-1-ylmethyl)-[1,1′-biphenyl]-4-yl)methyl)-1H-indol-5-yl)-1H-1,2,4-triazole-3-carboxamide]	251	87		
Cc1cc(C(N)=O)nn1-c1ccc2c(ccn2Cc2ccc(-c3ccc4nccn4c3)cc2)c1 [Example 1-7, 1-(1-(4-(imidazo[1,2-a]pyridin-6-yl)benzyl)-1H-indol-5-yl)-5-methyl-1H-pyrazole-3-carboxamide]	680	194		
Cc1cc(C(N)=O)nn1-c1ccc2c(ccn2Cc2ccc(C3=CCN(C)C(C)(C)C3)cc2)c1 [Example 15-1, 5-methyl-1-(1-(4-(1,2,2-trimethyl-1,2,3,6-tetrahydropyridin-4-yl)benzyl)-1H-indol-5-yl)-1H-pyrazole-3-carboxamide]	391	242		
Cc1cc(C(N)=O)nn1-c1ccc2c(ccn2Cc2ccc(C3=CCN(S(C)(=O)=O)CC3)cc2)c1 [Example 4, 5-methyl-1-(1-(4-(1-(methylsulfonyl)-1,2,3,6-tetrahydropyridin-4-yl)benzyl)-1H-indol-5-yl)-1H-pyrazole-3-carboxamide]	306	109		
Cc1cc(C(N)=O)nn1-c1ccc2c(ccn2Cc2ccc(NC3CCN(C)C3)cc2)c1 (single isomer, unassigned) [Example 37-1, 5-Methyl-1-(1-(4-((1-methylpyrrolidin-3-yl)amino)benzyl)-1H-indol-5-yl)-1H-pyrazole-3-carboxamide]	4790	724		
Cc1cc(C(N)=O)nn1-c1ccc2c(ccn2Cc2ccc(C3CCCN(C)CC3)cc2)c1 (single isomer, unassigned) [Example 29-1, 5-methyl-1-(1-(4-(1-methylazepan-4-yl)benzyl)-1H-indol-5-yl)-1H-pyrazole-3-carboxamide]	1690	483		
Cc1cc(C(N)=O)nn1-c1ccc2c(ccn2Cc2ccc(-c3ccc4cn[nH]c4c3)cc2)c1 [Example 1-14, 1-(1-(4-(1H-indazol-6-yl)benzyl)-1H-indol-5-yl)-5-methyl-1H-pyrazole-3-carboxamide]	1050	284		
Cc1cc(C(N)=O)nn1-c1ccc2c(ccn2Cc2ccc(C3=CCN(C(=O)CCCN(C)C)CC3)cc2)c1 [Example 10]	512	189		
Cc1cc(C(N)=O)nn1-c1ccc2c(ccn2Cc2ccc(C3CCN(C)CC3)cc2)c1 [Example 2-5, 5-methyl-1-(1-(4-(1-methylpiperidin-4-yl)benzyl)-1H-indol-5-yl)-1H-pyrazole-3-carboxamide]	760	281		
Cc1cc(C(N)=O)nn1-c1ccc2c(ccn2Cc2ccc(-c3ccc(S(=O)(=O)CCN(C)C)cc3)cc2)c1 [Example 19-3, 1-(1-((4′-((2-(dimethylamino)ethyl)sulfonyl)-[1,1′-biphenyl]-4-yl)methyl)-1H-indol-5-yl)-5-methyl-1H-pyrazole-3-carboxamide]	128	99		
Cc1cc(C(N)=O)nn1-c1ccc2c(ccn2Cc2ccc(NC3CCN(C)C3)cc2)c1 (single isomer, unassigned) [Example 37-2, 5-methyl-1-(1-(4-((1-methylpyrrolidin-3-yl)amino)benzyl)-1H-indol-5-yl)-1H-pyrazole-3-carboxamide]			4080	928
Cc1cc(C(N)=O)nn1-c1ccc2c(ccn2Cc2ccc(C3CCCNC3)cc2)c1 (stereo not drawn) [Example 2-4, 5-methyl-1-(1-(4-(piperidin-3-yl)benzyl)-1H-indol-5-yl)-1H-pyrazole-3-carboxamide]	1630	429		
Cc1cc(C(N)=O)nn1-c1ccc2c(ccn2Cc2ccc(-c3ccc(C(=O)N(C)C)cc3)cc2)c1 [Example 1-35, 1-(1-((4′-(dimethylcarbamoyl)-[1,1′-biphenyl]-4-yl)methyl)-1H-indol-5-yl)-5-methyl-1H-pyrazole-3-carboxamide]	217	60		
Cc1cc(C(N)=O)nn1-c1ccc2c(ccn2Cc2ccc(-c3cccc(S(N)(=O)=O)c3)cc2)c1 [Example 1-20, 5-methyl-1-(1-((3′-sulfamoyl-[1,1′-biphenyl]-4-yl)methyl)-1H-indol-5-yl)-1H-pyrazole-3-carboxamide]	> 10000	126		
CC(=O)N1CC=C(c2ccc(Cn3ccc4cc(-n5nc(C(N)=O)cc5C)ccc43)cc2)CC1 [Example 1-4, 1-(1-(4-(1-acetyl-1,2,3,6-tetrahydropyridin-4-yl)benzyl)-1H-indol-5-yl)-5-methyl-1H-pyrazole-3-carboxamide]	252	121		
Cc1cc(C(N)=O)nn1-c1ccc2c(ccn2Cc2ccc(-c3ccc(CN4CCOCC4)cc3)cc2)c1 [Example 1-37, 5-methyl-1-(1-((4′-(morpholinomethyl)-[1,1′-biphenyl]-4-yl)methyl)-1H-indol-5-yl)-1H-pyrazole-3-carboxamide]	206	75		
Cc1cn(Cc2ccc([C@@H]3C[C@@H]4CN(C)C[C@@H]4C3)cc2)c2ccc(-n3nc(C(N)=O)cc3C)cc12 [Example 43, 5-Methyl-1-(3-methyl-1-(4-((3aR,5r,6aS)-2-methyloctahydrocyclopenta[c]pyrrol-5-yl)benzyl)-1H-indol-5-yl)-1H-pyrazole-3-carboxamide]	740	215		
